Read-outs that look alike come from different tables or passages of the source. No end group written: not given here.
Legend:
[1] = test system: S. mutans UA159 and comD; test: Binding of fluorescently labeled peptides to S. mutans (fluorescence microscopy); design: species or system Streptococcus mutans; details: fluorescently labeled peptide
Description: To determine whether there was a region within the CSPC16 sequence that was responsible for S. mutans-specific binding, we synthesized a series of fluorescently labeled CSPC16 fragments, and analyzed their ability to bind to S. mutans. The following strategies were utilized in dissecting the CSPC16 sequence (Table 2): First, a series of fragments were constructed by generating deletions of 3 or 4 amino acids, from the N to C terminus, across the CSPC16 sequence (C16-1 to C16-5). Peptides lacking larger portions of the C or N termini of CSPC16 were also synthesized (C16-6 to C16-12). Additionally, peptides with Arg to […] (a positive to negative change in charge) (C16-4) or Phe to Gly substitutions (for a general decrease in hydrophobicity) (C16-3), as well as peptides representing a 4-residue Ala scan of the C16 sequence were constructed (C 16-15 to C16-18). […] These peptides include C16 (SEQ ID NO 1), C16-3 (SEQ ID NO 39), C16-4 (SEQ ID NO 40), C16-5 (SEQ ID NO 41), C16-6 (SEQ ID NO 42), C16-11 (SEQ ID NO 47), C16-12 (SEQ ID NO 5), C16-16 (SEQ ID NO 51), C16-17 (SEQ ID NO 52), and C16-18 (SEQ ID NO 53).
(§1) 1.2 Fluorescent labeling of peptides and fluorescence microscopy. Aliquots of CSPC16 (SEQ ID NO 2), CSP-fragment peptides (Table 2), and C16G2 (SEQ ID NO 4) were labeled with carboxyfluorescein (Sigma) as described previously (Eckert et al., 2006). After peptide cleavage but prior to the bacterial labeling assay, fluorescence intensity per μM peptide was checked fluorimetrically (λex=488 nm, λem=520 nm VersaFluor, BioRad) and found to be relatively similar (data not shown). To evaluate the level of peptide binding to bacteria, streptococci from an overnight culture (OD600 of 0.7-1.0) were washed with phosphate buffered saline (1×PBS), diluted 1:2 into 1×PBS, and exposed to peptide (16 μM) for 5 min at 25° C. After incubation with peptide, unbound agent was removed from the bacteria by three cycles of centrifugation (5 min, 16,000×g) and resuspension in 1×PBS. Labeling of oral streptococci was evaluated using brightfield and fluorescence microscopy (Nikon E400) at a 40× magnification. The digital images utilized for the semi-quantitative binding assessment were acquired with the factory-supplied software (SPOT, Diagnostics).

[2] = test system: other oral streptococci; test: Binding of fluorescently labeled peptides to other oral streptococci; details: fluorescently labeled peptide
Description: as §1

[3] = test system: S. mutans; type: cell-based, Streptococcus mutans
Procedure: (§2) 1.3 Determination of antimicrobial activity. The general antimicrobial activity of peptides against planktonic bacteria was determined by a MIC assay in TH broth (all oral streptococci) (Qi et al., 2005).
(§3) S. mutans, S. gordonii Challis (DL1), and S. sanguinis NY101 strains were grown in Todd Hewitt (TH, Fisher) broth medium at 37° C. under anaerobic conditions (80% N2, 10% CO2, and 10% H2). S. mutans strains UA159 (Ajdic et al., 2002), ATCC 25175, and T8 (Rogers, 1975), are wild-type clinical isolates, while comD is a knockout mutant that was constructed previously from the wild-type UA140 background (Qi et al., 2005). Luciferase expressing S. mutans strain JM11 was constructed from UA140 as described (Merritt et al., 2005). Exponentially growing bacterial cells were diluted to ˜1×10^5 cfu/mL in TH and placed into 96-well plates (Fisher). Peptides were then serially diluted and added to the bacteria.

[4] = test system: S. gordonii; type: cell-based, S. gordonii Challis (DL1)
Procedure: as §2, §3

[5] = test system: S. sanguinis; type: cell-based, S. sanguinis NY101
Procedure: as §2, §3

[6] = test system: S. mutans UA159; test: Time-kill (bactericidal kinetics), planktonic S. mutans; type: cell-based, Streptococcus mutans; details: 25 μM, 1 min exposure
Procedure: 1.4 Determination of bactericidal kinetics. To determine the short term killing rate and selectivity of C16G2 and G2 we performed time-kill experiments, essentially as described previously (Eckert et al., 2006). S. mutans UA159, S. gordonii, or S. sanguinis were grown to log phase and diluted to ˜1×10^5 cfu/mL in growth medium. Under aerobic conditions, 25 μM G2 or C16G2 was added to the cell suspension and incubated at 25° C. At 1 min, 10 μL of cell suspension was removed, rescued by dilution into growth medium (1:50) and kept on ice. For plating, 20-500 μL of rescued cells were spread on growth medium agar plates and colonies were counted after overnight incubation at 37° C. under anaerobic conditions. We considered 60 cfu/mL as the detection limit for this assay. Values of surviving cfu/mL were expressed as the ratio of survivors from C16G2-treated cultures to cfu/mL from samples exposed to G2.

[7] = test system: S. gordonii biofilms; test: Single-species biofilm regrowth after peptide exposure, S. gordonii; type: cell-based; details: 25 μM peptide, 1 min exposure
Procedure: (§4) 1.5 Examination of antimicrobial activity against single-species biofilms. To initiate biofilm formation, ˜1×10^7 bacteria per well (from overnight cultures) were seeded in TH medium (100 μL) to a 96-well flat-bottom plate. For all streptococci except S. mutans, the medium was supplemented with 0.5% (w/v) mannose and glucose. S. mutans UA159 biofilms were grown with 0.5% (w/v) sucrose. Plates were then centrifuged briefly to pellet the cells, and bacteria were incubated for 3-4 hours at 37° C. for biofilm formation. After incubation, the supernatant was carefully removed and biofilms were treated with 25 μM peptide in 1×PBS or 1×PBS alone for 1 min. The peptide solution was then removed and 100 μL TH was added to further dilute any remaining peptide. To minimize biofilm loss, cells were briefly centrifuged after TH addition, after which the supernatants were removed and fresh medium plus appropriate sugars were returned. Cells were then incubated anaerobically at 37° C. and biofilm growth was monitored over time by measuring absorbance at OD600 with a microplate spectrophotometer (Benchmark Plus, BioRad).

[8] = test system: S. sanguinis biofilms; test: Single-species biofilm regrowth after peptide exposure, S. sanguinis; type: cell-based; details: 25 μM peptide, 1 min exposure
Procedure: as §4

In the case of “TFFRLFNRSFTQALGKGGGKNLRIIRKGIHIIKKY-NH2 [Peptide C16G2]”, the “binding to S. mutans (in words)” value [1] is reported as “could specifically bind to S. mutans”, the “binding to other oral streptococci” value [2] is reported as “not to other oral streptococci” and the “increase in antimicrobial activity over the parental antimicrobial peptide G2” value ([3]; MIC, S. mutans strains) is reported as 4-5 fold. The MIC ([3]; S. mutans 25175) was 3.8 ± 0.3 µM, the MIC ([3]; S. mutans T8) was 3.7 ± 0.2 µM and the MIC ([3]; S. mutans UA159) was 3.0 ± 1.6 µM. The MIC ([3]; S. mutans comD) was 5.1 ± 2.4 µM, the MIC [4] was 23.5 ± 7.8 µM and the “difference in susceptibility between G2 and C16G2” value ([4]; MIC, S. gordonii) was no more than 2 fold. The MIC [5] was 19.1 ± 4.0 µM, the “difference in susceptibility between G2 and C16G2” value ([5]; MIC, S. sanguinis) was no more than 2 fold and the “activity in comparison to G2 (surviving cfu/mL)” value [6] was “over 20 fold”. For the same substance, the “biofilm re-growth after treatment (OD600)” value [7] was “grew similarly to untreated biofilms” and the “biofilm re-growth after treatment (OD600)” value [8] was “grew similarly to untreated biofilms”.

— patent US8680058B2, “Selectively targeted antimicrobial peptides and the use thereof” (priority 2006, dated 2014)
